Results published in PMC10223164, “Exploration of the Transglycosylation Activity of Barley Limit Dextrinase for Production of Novel Glycoconjugates” (Molecules, 2023).

Biological target: T1, HvLD (barley limit dextrinase) (Hordeum vulgare, UniProt Q9FYY0)
T1 sequence (Q9FYY0 1-905 limits assumed): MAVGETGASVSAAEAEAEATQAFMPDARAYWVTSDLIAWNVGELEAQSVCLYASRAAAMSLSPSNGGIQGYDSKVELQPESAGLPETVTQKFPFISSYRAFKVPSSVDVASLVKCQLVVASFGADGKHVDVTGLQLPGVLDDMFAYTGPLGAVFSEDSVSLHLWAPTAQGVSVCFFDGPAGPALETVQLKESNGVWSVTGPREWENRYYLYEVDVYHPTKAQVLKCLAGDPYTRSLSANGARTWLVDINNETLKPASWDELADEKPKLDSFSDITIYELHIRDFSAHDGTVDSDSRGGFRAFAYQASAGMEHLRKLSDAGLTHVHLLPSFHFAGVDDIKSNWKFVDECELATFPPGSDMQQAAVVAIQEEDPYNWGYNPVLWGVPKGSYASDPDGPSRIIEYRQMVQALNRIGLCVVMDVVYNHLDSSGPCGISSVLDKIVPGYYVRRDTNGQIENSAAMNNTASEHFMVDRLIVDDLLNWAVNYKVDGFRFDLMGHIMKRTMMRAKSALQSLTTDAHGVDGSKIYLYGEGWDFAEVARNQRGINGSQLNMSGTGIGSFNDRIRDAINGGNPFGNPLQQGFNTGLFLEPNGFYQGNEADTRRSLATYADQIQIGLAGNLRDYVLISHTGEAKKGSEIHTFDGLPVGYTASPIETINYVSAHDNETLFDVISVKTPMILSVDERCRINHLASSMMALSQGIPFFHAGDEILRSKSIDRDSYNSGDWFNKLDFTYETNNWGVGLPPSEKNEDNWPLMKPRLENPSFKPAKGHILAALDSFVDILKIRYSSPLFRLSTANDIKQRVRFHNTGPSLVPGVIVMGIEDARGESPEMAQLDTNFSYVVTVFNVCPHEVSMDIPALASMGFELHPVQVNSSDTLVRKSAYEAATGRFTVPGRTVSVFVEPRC
Assay: LC-ESI-MS with UV quantification of transglycosylation products
Format: biochemical
Settings: glycosyl donor, 10 mg/mL; acceptors pNP-sugars 8-14 mM; 20 mM sodium acetate pH 5.5; 5 mM CaCl2; 37 °C, 2 h

OC[C@H]1O[C@H](OC[C@H]2O[C@H](O[C@H]3[C@H](O)[C@@H](O)[C@@H](O[C@H]4[C@H](O)[C@@H](O)[C@@H](OC[C@H]5O[C@H](O[C@H]6[C@H](O)[C@@H](O)[C@@H](O[C@H]7[C@H](O)[C@@H](O)C(O)O[C@@H]7CO)O[C@@H]6CO)[C@H](O)[C@@H](O)[C@@H]5O)O[C@@H]4CO)O[C@@H]3CO)[C@H](O)[C@@H](O)[C@@H]2O)[C@H](O)[C@@H](O)[C@@H]1O (stereo partly drawn) [G1G3G3, 6^3-α-(6^3-α-D-glucosyl-maltotriosyl)-maltotriose]
LC-ESI-MS with UV quantification of transglycosylation products: G1G3G3 could serve as donor in HvLD TG reactions with all five pNP-sugars
